Experimental data as given in patent US6444829B1, “Pyrrolidine compounds” (Hoffmann-La Roche Inc., priority 2000, dated 2002).

melting point: 64 °C
SMILES: CC(=O)N(Cc1ccccc1)NC(=O)[C@@H]1C[C@@H](S)CN1S(=O)(=O)c1ccc2ccccc2c1
